US10988456B2, “O-aminoheteroaryl alkynyl-containing compound, preparation method therefor, and use thereof” (SHANGHAI INSTITUTE OF MATERIA MEDICA, CHINESE ACADEMY OF …, priority 2017, dated 2021)
Entries after “also recorded” stand apart in the source; their conditions may differ.

Key:
[1] = test system: human lung cancer NCI-H1581 xenografts; assay: Growth of subcutaneous xenografts of human lung cancer NCI-H1581 in nude mice; type: in vivo; conditions: for Relative tumor volume RTV (mean ± SD): NCI-H1581, 50 mg/kg orally once a day; for Weight (g, mean ± SD): NCI-H1581 tumor-bearing mice, 50 mg/kg orally once a day
Method: (§1) The diameter of the subcutaneously implanted tumor in nude mice was measured by a vernier caliper. […] In the compound HuFGFR267 50 mg/kg group, the compound was formulated with 0.5% methylcellulose (MC) to the required concentration before use. The formulation of compound was prepared once a week, and orally administered once a day for 14 days. The positive control drug AZD4547 was diluted to the required concentration with water for injection containing 1% Tween 80 before use. The formulation of AZD4547 was prepared once a week, and orally administered once a day for 14 days. In the solvent control group, an equal amount of water for injection was administrated.

[2] = test system: RET signaling pathway in TT and BaF3/CCDC6-RET cells; assay: Western blotting of RET signaling pathway activation in cells; type: cell-based; conditions: compounds 2 hours; P-RET, P-AKT, P-ErK
Method: Detecting the Effect of Compounds on the Activation of RET Signaling Pathway in TT and BaF3/CCDC6-RET Cells by Western Blotting
The cells were seeded into a 12-well plate (250,000/well). After incubation for 18-24 hours, the compounds were added to react for 2 hours, and then the cells were collected and firstly washed once with cold PBS (containing 1 mmol sodium vanadate); then 1×SDS gel loading buffer (50 mmol Tris-HCl (pH 6.8), 100 mmol DTT, 2% SDS, 10% glycerol, 1 mmol sodium vanadate, 0.1% bromophenol blue) was added to lyse cells. The cell lysate was heated in a boiling water bath for 10 minutes, and then centrifuged at 12,000 rpm for 10 minutes at 4° C.
The supernatant was taken for SDS-PAGE electrophoresis (Mini-PROTEAN 3 Cell, Bio-Rad, Hercules, Calif., USA). After electrophoresis, the proteins were transferred to a nitrocellulose membrane using a semi-dry electrotransfer system (Amersham Life Sciences, Arlington Heights, Ill., USA). The nitrocellulose membrane was placed in a blocking solution (5% skim milk powder diluted in TBS containing 1 mmol sodium vanadate) for 2 hours at room temperature, and then the membrane was placed and reacted with a primary antibody at 4° C. overnight. […] The membrane was placed in a secondary antibody solution and reacted for 1-2 hours at room temperature. After the membrane was washed three times as above, the membrane was stained using ECL (Picece, Rockford, Ill.) reagent was used for staining and then developed.

[3] = target: KDR (Homo sapiens, UniProt P35968); assay: Inhibition of receptor tyrosine kinase activity at molecular level (ELISA, Poly(Glu,Tyr)4:1 substrate phosphorylation); type: biochemical; conditions: 10 nM compound; average of two independent experiments
Sequence of KDR (P35968 20-1356): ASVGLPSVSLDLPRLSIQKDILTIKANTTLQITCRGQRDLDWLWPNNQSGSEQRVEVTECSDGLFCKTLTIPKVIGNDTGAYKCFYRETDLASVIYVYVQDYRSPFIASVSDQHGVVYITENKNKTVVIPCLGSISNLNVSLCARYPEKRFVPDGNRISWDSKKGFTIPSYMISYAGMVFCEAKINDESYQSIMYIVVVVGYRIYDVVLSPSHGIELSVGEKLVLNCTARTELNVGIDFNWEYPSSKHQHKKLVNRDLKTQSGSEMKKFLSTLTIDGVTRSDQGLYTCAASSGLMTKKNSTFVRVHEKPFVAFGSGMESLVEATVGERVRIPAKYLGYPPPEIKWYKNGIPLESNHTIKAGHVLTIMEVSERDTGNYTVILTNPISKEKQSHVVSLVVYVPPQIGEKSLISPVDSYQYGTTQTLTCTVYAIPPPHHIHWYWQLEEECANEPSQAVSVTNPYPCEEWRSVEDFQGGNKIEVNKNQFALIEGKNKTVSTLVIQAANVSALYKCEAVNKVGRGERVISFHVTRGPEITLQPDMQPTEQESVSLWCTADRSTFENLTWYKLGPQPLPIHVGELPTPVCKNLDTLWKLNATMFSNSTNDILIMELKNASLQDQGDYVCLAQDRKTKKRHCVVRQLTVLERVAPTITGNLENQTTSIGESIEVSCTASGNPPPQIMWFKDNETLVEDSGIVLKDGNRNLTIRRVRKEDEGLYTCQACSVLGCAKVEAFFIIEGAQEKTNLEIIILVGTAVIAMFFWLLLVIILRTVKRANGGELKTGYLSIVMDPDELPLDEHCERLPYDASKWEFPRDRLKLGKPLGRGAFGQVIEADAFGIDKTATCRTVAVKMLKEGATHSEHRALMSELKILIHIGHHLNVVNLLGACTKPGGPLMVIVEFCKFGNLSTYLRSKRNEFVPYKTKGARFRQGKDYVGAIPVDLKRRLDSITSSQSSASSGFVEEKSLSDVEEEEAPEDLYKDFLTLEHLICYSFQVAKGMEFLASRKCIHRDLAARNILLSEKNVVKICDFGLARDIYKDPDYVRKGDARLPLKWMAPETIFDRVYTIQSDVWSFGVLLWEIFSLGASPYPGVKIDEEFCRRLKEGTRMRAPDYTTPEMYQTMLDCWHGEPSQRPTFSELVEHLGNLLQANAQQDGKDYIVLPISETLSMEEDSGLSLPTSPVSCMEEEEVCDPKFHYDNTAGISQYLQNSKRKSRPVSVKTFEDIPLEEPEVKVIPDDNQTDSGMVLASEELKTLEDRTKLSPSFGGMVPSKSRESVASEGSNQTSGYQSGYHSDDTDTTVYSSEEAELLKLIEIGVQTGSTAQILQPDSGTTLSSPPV

[4] = target: FGFR1 (Homo sapiens, UniProt P11362); assay: as above; type: biochemical; conditions: 10 nM compound; average of two independent experiments
Sequence of FGFR1 (P11362 22-822): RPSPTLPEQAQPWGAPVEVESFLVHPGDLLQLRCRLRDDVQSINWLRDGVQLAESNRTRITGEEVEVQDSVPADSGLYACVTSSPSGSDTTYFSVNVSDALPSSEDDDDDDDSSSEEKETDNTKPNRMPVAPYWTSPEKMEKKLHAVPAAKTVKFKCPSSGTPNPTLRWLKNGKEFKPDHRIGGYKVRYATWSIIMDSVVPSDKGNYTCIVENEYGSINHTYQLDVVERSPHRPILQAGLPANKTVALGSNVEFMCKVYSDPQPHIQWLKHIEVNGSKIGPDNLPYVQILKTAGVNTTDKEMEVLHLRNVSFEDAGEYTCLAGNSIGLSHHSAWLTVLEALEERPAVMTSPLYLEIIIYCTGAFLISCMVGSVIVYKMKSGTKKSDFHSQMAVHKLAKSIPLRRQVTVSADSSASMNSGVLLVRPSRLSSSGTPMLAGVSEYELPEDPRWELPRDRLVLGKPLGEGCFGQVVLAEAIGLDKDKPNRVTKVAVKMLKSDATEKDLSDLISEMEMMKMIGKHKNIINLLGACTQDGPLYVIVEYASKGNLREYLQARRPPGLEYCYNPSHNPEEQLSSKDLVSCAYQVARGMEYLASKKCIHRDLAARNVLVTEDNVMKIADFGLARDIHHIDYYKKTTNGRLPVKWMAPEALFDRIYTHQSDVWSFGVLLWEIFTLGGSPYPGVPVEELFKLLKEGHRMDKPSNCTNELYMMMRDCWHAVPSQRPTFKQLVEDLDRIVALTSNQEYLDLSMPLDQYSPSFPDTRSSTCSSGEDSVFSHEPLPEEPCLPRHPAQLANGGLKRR

[5] = target: RET (Homo sapiens, UniProt P07949); assay: as above; type: biochemical
Sequence of RET (P07949 29-1114): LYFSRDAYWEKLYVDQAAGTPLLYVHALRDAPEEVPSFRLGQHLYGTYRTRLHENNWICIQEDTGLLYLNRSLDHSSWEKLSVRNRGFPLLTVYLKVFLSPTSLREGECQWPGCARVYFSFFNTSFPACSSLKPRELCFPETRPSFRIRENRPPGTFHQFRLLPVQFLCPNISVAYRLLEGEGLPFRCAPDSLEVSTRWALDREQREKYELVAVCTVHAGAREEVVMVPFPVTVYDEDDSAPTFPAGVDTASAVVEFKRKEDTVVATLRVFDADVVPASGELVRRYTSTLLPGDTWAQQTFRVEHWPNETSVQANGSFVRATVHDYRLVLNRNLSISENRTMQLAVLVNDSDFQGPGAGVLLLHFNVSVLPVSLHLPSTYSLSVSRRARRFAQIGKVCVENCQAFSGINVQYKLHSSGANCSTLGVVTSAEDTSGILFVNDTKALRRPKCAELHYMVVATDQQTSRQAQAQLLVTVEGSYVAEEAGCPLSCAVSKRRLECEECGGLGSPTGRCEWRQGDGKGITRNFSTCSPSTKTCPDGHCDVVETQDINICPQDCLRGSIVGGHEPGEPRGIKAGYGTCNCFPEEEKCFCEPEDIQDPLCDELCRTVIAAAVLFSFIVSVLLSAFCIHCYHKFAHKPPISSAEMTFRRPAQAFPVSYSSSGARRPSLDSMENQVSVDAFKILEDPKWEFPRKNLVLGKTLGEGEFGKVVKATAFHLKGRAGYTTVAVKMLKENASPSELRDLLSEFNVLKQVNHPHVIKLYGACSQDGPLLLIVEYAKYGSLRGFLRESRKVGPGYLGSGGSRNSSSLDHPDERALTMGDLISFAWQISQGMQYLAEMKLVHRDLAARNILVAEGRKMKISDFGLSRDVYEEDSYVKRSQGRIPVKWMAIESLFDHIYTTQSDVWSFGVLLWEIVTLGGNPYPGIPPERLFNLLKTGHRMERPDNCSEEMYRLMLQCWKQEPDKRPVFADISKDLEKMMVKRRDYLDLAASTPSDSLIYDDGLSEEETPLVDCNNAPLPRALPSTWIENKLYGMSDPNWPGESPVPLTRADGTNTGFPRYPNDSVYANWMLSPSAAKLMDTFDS
How it was run: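 Poly(Glu,Tyr)4:1-coated plates (20 μg/mL) were incubated with recombinant kinase, compound and 5 μM ATP (final) in HEPES pH 7.4 buffer with MgCl2/MnCl2/Na3VO4/DTT for 1 h at 37 °C. Phosphotyrosine was detected with PY99 and HRP anti-mouse IgG plus OPD at 490 nm. IC50 came from four-parameter regression.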

[6] = test system: human gastric cancer SNU-16 xenografts; assay: Growth of subcutaneous xenografts of human gastric cancer SNU-16 in nude mice (HuFGFR267 study); type: in vivo; conditions: for relative tumor proliferation rate T/C: day 21; for Weight (g, mean ± SD): SNU-16 tumor-bearing mice
Method: as §1, with “The formulation of compound was prepared once a week, and orally administered once a day for 14 days.” left out, “The formulation of AZD4547 was prepared once a week, and orally administered once a day for 14 days.” left out

CN1CCN(Cc2ccc(NC(=O)c3ccc(Cl)c(C#Cc4cccnc4N)c3)cc2C(F)(F)F)CC1 [Example 1, 3-(2-aminopyridine-3-ethynyl)-4-chloro-N-(4-((4-methylpiperazin-1-yl)methylene)-3-(trifluoromethyl)phenyl)benzamide]
body weight of tumor-bearing mice (in words) ([1]; NCI-H1581, 50 mg/kg orally once a day for 14 days): no significant change
relative tumor proliferation rate T/C ([1]; NCI-H1581, 50 mg/kg orally once a day for 14 days, 14th day): 3.77%
Relative tumor volume RTV (mean ± SD) ([1]; d0): 1.00 ± 0.00
Relative tumor volume RTV (mean ± SD) ([1]; d3): 1.28 ± 0.40
Relative tumor volume RTV (mean ± SD) ([1]; d7): 1.33 ± 0.74
Relative tumor volume RTV (mean ± SD) ([1]; d10): 2.02 ± 1.10
Relative tumor volume RTV (mean ± SD) ([1]; d14): 2.16 ± 1.41
animal deaths during the experiment ([1]; NCI-H1581, each group (HuFGFR267 50 mg/kg, AZD4547 12.5 mg/kg)): no mice died
Weight (g, mean ± SD) ([1]; d0): 18.1 ± 1.2 g
Weight (g, mean ± SD) ([1]; d3): 19.2 ± 1.0 g
Weight (g, mean ± SD) ([1]; d7): 19.7 ± 1.0 g
Weight (g, mean ± SD) ([1]; d10): 20.2 ± 1.2 g
Weight (g, mean ± SD) ([1]; d14): 20.0 ± 1.3 g
inhibition of RET phosphorylation and downstream signaling pathway (Western blot, FIG. 1) [2]: inhibited RET phosphorylation and the downstream signaling pathway
10 nM inhibition ratio KDR [3]: 45.1
10 nM inhibition ratio FGFR1 [4]: 77.7
10 nM inhibition ratio RET ([5]; 10 nM compound, average of two independent experiments): 87.6
IC50 ([5]; measured twice, Mean ± SD): 1.4 ± 0.6 nM
relative tumor proliferation rate T/C ([6]; SNU-16, 25 mg/kg orally once a day for 21 days): 18.55%
Relative tumor volume RTV (mean ± SD) ([6]; SNU-16, 25 mg/kg orally once a day, d0): 1.00 ± 0.00
Relative tumor volume RTV (mean ± SD) ([6]; SNU-16, 25 mg/kg orally once a day, d3): 1.74 ± 0.58
Relative tumor volume RTV (mean ± SD) ([6]; SNU-16, 25 mg/kg orally once a day, d7): 2.51 ± 0.93
Relative tumor volume RTV (mean ± SD) ([6]; SNU-16, 25 mg/kg orally once a day, d10): 3.13 ± 1.51
Relative tumor volume RTV (mean ± SD) ([6]; SNU-16, 25 mg/kg orally once a day, d14): 3.79 ± 1.93
Relative tumor volume RTV (mean ± SD) ([6]; SNU-16, 25 mg/kg orally once a day, d17): 3.97 ± 1.58
Relative tumor volume RTV (mean ± SD) ([6]; SNU-16, 25 mg/kg orally once a day, d21): 4.35 ± 2.03
relative tumor proliferation rate T/C ([6]; SNU-16, 50 mg/kg orally once a day for 21 days): 11.66%
Relative tumor volume RTV (mean ± SD) ([6]; SNU-16, 50 mg/kg orally once a day, d0): 1.00 ± 0.00
Relative tumor volume RTV (mean ± SD) ([6]; SNU-16, 50 mg/kg orally once a day, d3): 1.11 ± 0.42
Relative tumor volume RTV (mean ± SD) ([6]; SNU-16, 50 mg/kg orally once a day, d7): 0.83 ± 0.49
Relative tumor volume RTV (mean ± SD) ([6]; SNU-16, 50 mg/kg orally once a day, d10): 1.26 ± 0.71
Relative tumor volume RTV (mean ± SD) ([6]; SNU-16, 50 mg/kg orally once a day, d14): 1.89 ± 1.57
Relative tumor volume RTV (mean ± SD) ([6]; SNU-16, 50 mg/kg orally once a day, d17): 2.02 ± 1.63
Relative tumor volume RTV (mean ± SD) ([6]; SNU-16, 50 mg/kg orally once a day, d21): 2.73 ± 2.82
body weight of tumor-bearing mice (in words) ([6]; SNU-16, HuFGFR267 50 mg/kg and 25 mg/kg groups): no significant change; also recorded: did not change significantly
animal deaths during the experiment ([6]; SNU-16, each group (HuFGFR267 50 and 25 mg/kg, AZD4547 12.5 mg/kg)): no mice died
Weight (g, mean ± SD) ([6]; 25 mg/kg orally once a day, d0): 18.6 ± 1.6 g
Weight (g, mean ± SD) ([6]; 25 mg/kg orally once a day, d3): 19.4 ± 1.7 g
Weight (g, mean ± SD) ([6]; 25 mg/kg orally once a day, d7): 20.0 ± 1.8 g
Weight (g, mean ± SD) ([6]; 25 mg/kg orally once a day, d10): 20.9 ± 1.8 g
Weight (g, mean ± SD) ([6]; 25 mg/kg orally once a day, d14): 21.3 ± 1.7 g
Weight (g, mean ± SD) ([6]; 25 mg/kg orally once a day, d17): 21.2 ± 1.6 g
Weight (g, mean ± SD) ([6]; 25 mg/kg orally once a day, d21): 21.4 ± 1.8 g
Weight (g, mean ± SD) ([6]; 50 mg/kg orally once a day, d0): 18.9 ± 1.9 g
Weight (g, mean ± SD) ([6]; 50 mg/kg orally once a day, d3): 19.4 ± 2.2 g
Weight (g, mean ± SD) ([6]; 50 mg/kg orally once a day, d7): 19.9 ± 2.4 g
Weight (g, mean ± SD) ([6]; 50 mg/kg orally once a day, d10): 20.6 ± 2.3 g
Weight (g, mean ± SD) ([6]; 50 mg/kg orally once a day, d14): 20.5 ± 2.2 g
Weight (g, mean ± SD) ([6]; 50 mg/kg orally once a day, d17): 20.8 ± 2.3 g
Weight (g, mean ± SD) ([6]; 50 mg/kg orally once a day, d21): 20.7 ± 2.2 g
